Experimental data reported in the supplement of paper PMC10331698.
± gives the standard deviation of the averaged measurements.

Assays:
Test in all cases: level (log10 ratio to DMSO vehicle control); higher = higher biomarker level / cell amount than vehicle control
[1] = compound: C=C(C)C(=O)OCCC(F)(F)C(F)(F)C(F)(F)C(F)(F)C(F)(F)C(F)(F)C(F)(F)C(F)(F)F [8:2 Fluorotelomer methacrylate] (in DMSO)
Procedure: (§1)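 BioMAP Diversity Plus panel of 12 human primary cell co-culture systems (3C, 4H, LPS, SAg, BT, BF4T, BE3C, CASM3C, HDF3CGF, KF3CT, MyoF, Mphg). Compounds were added 1 h before stimulation and left for 24 h (MyoF 48 h; BT 72 h for soluble read-outs or 6 d for IgG). Biomarkers were read by ELISA, cytotoxicity by SRB, PBMC viability and proliferation by Alamar Blue. Each well value was divided by the mean of 8 DMSO control wells on the same plate and log10 transformed; duplicate blinded samples were tested at 4 concentrations.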

[2] = compound: CN(C(=O)C(F)(F)C(F)(F)C(F)(F)F)[Si](C)(C)C [N-Methyl-N-trimethylsilylheptafluorobutyramide] (in DMSO)
Procedure: as §1

[3] = compound: C[C@@H]1C[C@H]2[C@@H]3CCC4=CC(=O)C=C[C@]4(C)[C@@]3(F)[C@@H](O)C[C@]2(C)[C@@]1(O)C(=O)COP(=O)(O)O [Dexamethasone sodium phosphate] (in DMSO)
Procedure: as §1

[4] = compound: NS(=O)(=O)C(F)(F)C(F)(F)C(F)(F)C(F)(F)C(F)(F)C(F)(F)C(F)(F)C(F)(F)F [Perfluorooctanesulfonamide] (in DMSO)
Procedure: as §1

[5] = compound: O=C(O)C(F)(OC(F)(F)C(F)(OC(F)(F)C(F)(OC(F)(F)C(F)(F)C(F)(F)F)C(F)(F)F)C(F)(F)F)C(F)(F)F [Perfluoro-(2,5,8-trimethyl-3,6,9-trioxadodecanoic)acid] (in DMSO)
Procedure: as §1

[6] = compound: O=C(O)CCC(F)(C(F)(F)F)C(F)(F)F [4,4-bis(Trifluoromethyl)-4-fluoropropanoic acid] (in DMSO)
Procedure: as §1

[7] = compound: OCC(F)(F)C(F)(F)C(F)(F)C(F)F [1H,1H,5H-Perfluoropentanol] (in DMSO)
Procedure: as §1

Test System | level (log10) ([1]; 6700 nM) | level (log10) ([1]; 20000 nM) | level (log10) ([2]; 6700 nM) | level (log10) ([2]; 20000 nM) | level (log10) ([2]; 60000 nM) | level (log10) ([3]; 1500 nM) | level (log10) ([3]; 4400 nM) | level (log10) ([3]; 13000 nM) | level (log10) ([3]; 40000 nM) | level (log10) ([4]; 6700 nM) | level (log10) ([4]; 20000 nM) | level (log10) ([5]; 1100 nM) | level (log10) ([5]; 3300 nM) | level (log10) ([5]; 10000 nM) | level (log10) ([6]; 6700 nM) | level (log10) ([6]; 20000 nM) | level (log10) ([6]; 60000 nM) | level (log10) ([7]; 6700 nM) | level (log10) ([7]; 20000 nM) | level (log10) ([7]; 60000 nM)
BT:sIL-6 | 0.0115 ± 0.042 | -0.0085 ± 0.11 | -0.054 ± 0.021 | -0.0635 ± 0.0035 | 0.002 ± 0.02 | -0.2605 ± 0.0021 | -0.281 ± 0.07 | -0.3065 ± 0.0021 | -0.33 ± 0.061 | -0.0455 ± 0.023 | -0.0485 ± 0.026 | -0.0085 ± 0.07 | 0.0025 ± 0.053 | 0.038 ± 0.013 | 0 ± 0.12 | -0.0215 ± 0.069 | -0.0665 ± 0.046 | 0.0265 ± 0.005 | 0.0175 ± 0.015 | 0.003 ± 0.014
3C:CXCL9/MIG | -0.002 ± 0.0028 | 0.0055 ± 0.0035 | -0.0045 ± 0.0035 | -0.0005 ± 0.0035 | 0.0065 ± 0.0092 | 0.0025 ± 0.0021 | 0.001 ± 0.0085 | -0.004 ± 0.0071 | 0.003 ± 0.0085 | 0.0225 ± 0.021 | 0.006 ± 0.028 | 0.0125 ± 0.0078 | -0.0035 ± 0.021 | 0.007 ± 0.0071 | 0.006 ± 0.0071 | -0.0075 ± 0.0035 | 0.0015 ± 0.0064 | 0 ± 0.0057 | -0.0035 ± 0.0064 | 0.0105 ± 0.00071
BT:Secreted IgG | 0.0175 ± 0.012 | 0.028 ± 0.0085 | 0.01 ± 0.011 | 0.016 ± 0.03 | 0.013 ± 0.048 | 0.024 ± 0.0085 | 0.002 | 0.034 ± 0.011 | 0.0025 ± 0.036 | -0.018 ± 0.0085 | -0.141 ± 0.1 | 0.0215 ± 0.049 | 0.0315 ± 0.013 | 0.0065 ± 0.021 | 0.019 ± 0.017 | -0.053 ± 0.062 | 0.0025 ± 0.005 | 0.044 ± 0.02 | 0.0295 ± 0.039 | 0.0475 ± 0.028
BT:sIL-2 | -0.006 ± 0.024 | -0.04 ± 0.064 | -0.0665 ± 0.013 | -0.0325 ± 0.056 | 0.045 ± 0.042 | -0.442 ± 0.033 | -0.451 ± 0.12 | -0.458 ± 0.039 | -0.456 ± 0.032 | -0.0115 ± 0.049 | 0.0005 ± 0.028 | 0 ± 0.05 | 0.061 ± 0.069 | 0.0465 ± 0.026 | -0.0855 ± 0.13 | 0.02 ± 0.12 | 0.005 ± 0.2 | -0.0095 ± 0.066 | -0.0245 ± 0.0078 | 0.0145 ± 0.059
BF4T:CXCL8/IL-8 | -0.026 ± 0.014 | -0.023 ± 0.021 | -0.008 ± 0.024 | -0.0025 ± 0.018 | 0.0025 ± 0.019 | -0.0315 ± 0.04 | -0.0495 ± 0.046 | -0.0715 ± 0.033 | -0.0435 ± 0.00071 | 0.003 ± 0.0057 | 0.0405 ± 0.013 | 0.0365 ± 0.0078 | 0.034 ± 0.024 | 0.034 ± 0.016 | -0.0085 ± 0.03 | 0.028 ± 0.028 | 0.0115 ± 0.0021 | 0.037 ± 0.083 | 0.0505 ± 0.07 | 0.0685 ± 0.046
4H:CD62P/P-selectin | -0.02 ± 0.02 | -0.0375 ± 0.0035 | -0.0065 ± 0.067 | -0.011 ± 0.052 | 0.002 ± 0.047 | -0.0355 ± 0.037 | -0.038 ± 0.0042 | -0.022 ± 0.011 | -0.033 ± 0.047 | 0.028 ± 0.014 | -0.0235 ± 0.018 | -0.002 ± 0.069 | 0.0295 ± 0.0064 | -0.0445 ± 0.026 | -0.0155 ± 0.022 | -0.032 ± 0.031 | 0.005 ± 0.086 | -0.0245 ± 0.0021 | 0.0205 ± 0.061 | 0.027 ± 0.038
BE3C:CXCL8/IL-8 | -0.002 ± 0.014 | -0.008 ± 0.0028 | 0.019 ± 0.054 | 0.0175 ± 0.061 | 0.055 ± 0.11 | -0.094 ± 0.044 | -0.137 ± 0.015 | -0.171 ± 0.0092 | -0.157 ± 0.011 | -0.123 ± 0.0099 | -0.192 ± 0.013 | 0.05 ± 0.038 | 0.039 ± 0.023 | 0.0625 ± 0.00071 | -0.0055 ± 0.011 | -0.025 ± 0.033 | -0.019 ± 0.033 | -0.0065 ± 0.077 | 0.0185 ± 0.12 | 0.0875 ± 0.12
4H:CCL26/Eotaxin-3 | 0.0035 ± 0.037 | 0 ± 0.02 | -0.0005 ± 0.005 | -0.001 | -0.003 ± 0.024 | -0.0175 ± 0.0035 | -0.0315 ± 0.0035 | -0.0285 ± 0.029 | -0.052 ± 0.078 | -0.0145 ± 0.013 | -0.03 ± 0.042 | 0.0005 ± 0.0078 | -0.0095 ± 0.023 | -0.0075 ± 0.005 | -0.0225 ± 0.0064 | 0.006 ± 0.033 | -0.0015 ± 0.049 | -0.008 ± 0.011 | 0.008 ± 0.0085 | -0.005 ± 0.0071
3C:SRB | -0.0205 ± 0.0035 | -0.01 ± 0.021 | 0.0135 ± 0.013 | 0.0035 ± 0.032 | 0.0075 ± 0.011 | -0.0005 ± 0.00071 | -0.005 ± 0.0085 | -0.0025 ± 0.025 | 0.0035 ± 0.025 | 0.0135 ± 0.022 | -0.088 ± 0.0042 | -0.0025 ± 0.005 | -0.0065 ± 0.0035 | 0.003 ± 0.0071 | -0.001 ± 0.0057 | 0.0045 ± 0.019 | 0.0125 ± 0.0078 | -0.011 | -0.006 ± 0.03 | -0.015 ± 0.011
BF4T:IL-1alpha | -0.009 ± 0.0057 | 0.008 ± 0.016 | -0.015 ± 0.016 | -0.0135 ± 0.016 | 0.015 ± 0.042 | 0.0045 ± 0.028 | -0.001 ± 0.013 | -0.0165 ± 0.013 | 0.004 ± 0.023 | 0.0095 ± 0.012 | -0.0455 ± 0.022 | -0.005 ± 0.0099 | -0.0105 ± 0.00071 | -0.0025 ± 0.0035 | -0.0005 ± 0.0092 | -0.0135 ± 0.019 | 0.003 ± 0.031 | -0.02 ± 0.0085 | 0.03 ± 0.044 | 0.0195 ± 0.018
BE3C:CXCL11/I-TAC | 0.0215 ± 0.053 | 0.025 ± 0.078 | -0.01 ± 0.0071 | 0.003 ± 0.014 | 0.012 ± 0.031 | 0 ± 0.018 | 0.0145 ± 0.0021 | -0.0175 ± 0.04 | -0.0215 ± 0.0078 | -0.0565 ± 0.013 | -0.183 ± 0.06 | 0.0145 ± 0.0092 | 0.0165 ± 0.013 | 0.014 ± 0.016 | 0.0195 ± 0.016 | 0.0015 ± 0.012 | -0.006 ± 0.0099 | 0.003 ± 0.017 | 0.0165 ± 0.028 | 0.0315 ± 0.046
4H:CD106/VCAM-1 | -0.035 ± 0.018 | -0.0485 ± 0.0064 | -0.011 | -0.0305 ± 0.049 | -0.023 ± 0.065 | 0.004 ± 0.02 | -0.011 ± 0.0042 | -0.012 ± 0.0028 | -0.005 ± 0.011 | 0.013 ± 0.034 | -0.0335 ± 0.044 | 0.019 ± 0.013 | 0.027 ± 0.014 | 0.049 ± 0.0099 | -0.014 ± 0.0042 | -0.004 | -0.0205 ± 0.022 | -0.0075 ± 0.0035 | 0.0115 ± 0.0021 | 0.018 ± 0.021
BE3C:CD54/ICAM-1 | -0.012 ± 0.018 | 0.002 ± 0.061 | -0.0005 ± 0.005 | 0.0045 ± 0.0064 | 0.001 ± 0.0028 | -0.0035 ± 0.033 | -0.0265 ± 0.005 | -0.0205 ± 0.0021 | -0.0105 ± 0.021 | -0.008 ± 0.016 | -0.001 ± 0.018 | 0.0115 ± 0.037 | 0.0145 ± 0.033 | 0.0295 ± 0.033 | -0.007 | -0.019 ± 0.014 | -0.002 ± 0.0099 | 0.0095 ± 0.042 | 0.02 ± 0.0014 | 0.0175 ± 0.028
3C:HLA-DR | -0.0035 ± 0.035 | 0.0115 ± 0.028 | 0.0015 ± 0.015 | 0.0045 ± 0.012 | 0.0285 ± 0.033 | -0.0025 ± 0.012 | -0.0065 ± 0.022 | 0.0035 ± 0.0035 | 0.0135 ± 0.0035 | -0.0115 ± 0.043 | -0.118 ± 0.082 | -0.0045 ± 0.0078 | -0.002 ± 0.0057 | 0.0115 ± 0.013 | -0.0125 ± 0.023 | -0.0085 ± 0.012 | -0.0065 ± 0.0035 | -0.02 ± 0.0028 | -0.0075 ± 0.025 | 0.0385 ± 0.023
